Measurements as given in patent US9745261B2, “Inhibitors of the MITF molecular pathway” (THE GENERAL HOSPITAL CORPORATION, priority 2013, dated 2017).

Key:
MITF = assay: qPCR assay for MITF expression in SK-MEL-5 cells; type: cell-based; conditions: Homo sapiens; SK-MEL-5 melanoma cells, up to 35 μM
Protocol: SK-MEL-5 cells were treated with compounds for 24 hours. Next, cells were lysed with DNase I (Ambion, from Cell to CT Lysis Mix). Lysed cells were delivered to a RT-PCR plate (Ambion, Cells to CT RT Mix) and the plates were then processed for reverse transcription to create cDNA. qPCR was performed by transferring cDNA from the RT-PCR plate to a qPCR plate containing PCR master mix (Roche, Probes Master), FAM Taqman probe/primer set for the target gene (human MITF, Applied Biosystem, 4331182 Hs01117294_m1), VIC Taqman probe/primer set for a house keeping gene (human GAPDH, Applied Biosystems C10228) and water. qPCR plates were cycled using a real-time PCR instrument (Roche, Light Cycler). Using the instrument software, a cycle call was generated when each well enters log phase amplification (Ct). The delta Ct value was determined by subtracting the Ct value of the control gene (GAPDH) from the Ct value of the target gene (MITF) in each well. The delta delta Ct value of each compound treatment was determined by averaging the delta Ct values of the mock well on each plate and subtracting that average from the delta Ct value of each compound well. […]
• 10. […] The RT assay plates are incubated at 37° C. for 1 hour and the reverse transcriptase is inactivated by incubating the plates for 1 minute at 95° C. • 13. cDNA is stored at −80° C. until ready for qPCR analysis […]

A375 cells = assay: A-375 cell cytotoxicity assay (CellTiter-Glo); type: cell-based, human; conditions: Homo sapiens, A-375; 24 hours, CellTiter-Glo; read-out: Antitarget Potency IC50 (μM) A375
Protocol: A375 cells were treated with compounds for 24 hours, and then cell viability was measured using the CellTiter-Glo Assay (Promega), a luciferase-based reagent that measures cellular ATP levels. The compounds were tested at different concentrations to determine IC50 values. Compounds that were active in the primary assay and were not toxic below 30 μM at 24 hours were considered for probe development. Data were normalized against DMSO in Genedata Screener's Assay Analyzer.
A-375 cells were maintained in DMEM (10% FBS, 1% Pen-Strep-Glutamine). Cells were fluid changed every 3 days and/or split upon reaching 90% confluency. For secondary assays, cells were thawed at 2 million cells per Falcon T175 flask. After 3 days, cells were passed to a Corning Triple flask (6-8 million cells) and plated after 3 days in the triple flask.
Day 1 • 1. Plate A-375 cells at 3,000 per well in 30 uL media (phenol red free DMEM/10% Fetal Bovine Serum/Penicillin/Streptomycin/L-Glutamine) • 2. Use Corning white 384-well, square, opaque-bottomed plates (Corning Catalog No. 8867BC)
Day 2 • 3. Pin 100 nL compound/DMSO solution (Cybi Well) into assay plates. (For HTS, required sentinel pinning with the positive control, parthenolide (6 mM)) • 4. Incubate 24 hours at 37° C. in Liconic incubator.
Day 3 • 5. […] Read on the Perkin-Elmer EnVision plate reader with luminescence (LUM) settings for 0.1 sec per well. […]

Dopamine D4.2 = molecular target: T1, Dopamine D4.2 (Homo sapiens, UniProt P21917, DEL265-296); assay: Radioligand binding, Dopamine D4.2
T1 construct: Eurofins Panlabs, Inc. (contract assay)

Dopamine D1 = molecular target: T2, Dopamine D1 (Homo sapiens, UniProt P21728); assay: Radioligand binding, Dopamine D1
T2 construct: Eurofins Panlabs, Inc. (contract assay)

Adrenergic α1B = molecular target: T3, Adrenergic α1B (Rattus norvegicus, UniProt P15823); assay: Radioligand binding, Adrenergic α1B
T3 construct: Eurofins Panlabs, Inc. (contract assay)

[1] = molecular target: T4, Platelet Activating Factor (PAF) (Homo sapiens, UniProt P25105); assay: Radioligand binding, Platelet Activating Factor (PAF)
T4 construct: Eurofins Panlabs

Adrenergic β1 = molecular target: T5, Adrenergic β1 (Homo sapiens, UniProt P08588); assay: Radioligand binding, Adrenergic β1
T5 construct: Eurofins Panlabs, Inc. (contract assay)

Opiate μ (OP3, MOP) = molecular target: T6, Opiate μ (OP3, MOP) (Homo sapiens, UniProt P35372); assay: Radioligand binding, Opiate μ (OP3, MOP)
T6 construct: Eurofins Panlabs, Inc

Potassium Channel hERG = molecular target: T7, Potassium Channel hERG (Homo sapiens, UniProt Q12809); assay: Radioligand binding, Potassium Channel hERG
T7 construct: Eurofins Panlabs

[2] = molecular target: T8, Androgen (Testosterone) AR (Rattus norvegicus, UniProt P15207); assay: Radioligand binding, Androgen (Testosterone) AR
T8 construct: Eurofins Panlabs, Inc. (contract assay)
T8 sequence (P15207 whole entry S389L): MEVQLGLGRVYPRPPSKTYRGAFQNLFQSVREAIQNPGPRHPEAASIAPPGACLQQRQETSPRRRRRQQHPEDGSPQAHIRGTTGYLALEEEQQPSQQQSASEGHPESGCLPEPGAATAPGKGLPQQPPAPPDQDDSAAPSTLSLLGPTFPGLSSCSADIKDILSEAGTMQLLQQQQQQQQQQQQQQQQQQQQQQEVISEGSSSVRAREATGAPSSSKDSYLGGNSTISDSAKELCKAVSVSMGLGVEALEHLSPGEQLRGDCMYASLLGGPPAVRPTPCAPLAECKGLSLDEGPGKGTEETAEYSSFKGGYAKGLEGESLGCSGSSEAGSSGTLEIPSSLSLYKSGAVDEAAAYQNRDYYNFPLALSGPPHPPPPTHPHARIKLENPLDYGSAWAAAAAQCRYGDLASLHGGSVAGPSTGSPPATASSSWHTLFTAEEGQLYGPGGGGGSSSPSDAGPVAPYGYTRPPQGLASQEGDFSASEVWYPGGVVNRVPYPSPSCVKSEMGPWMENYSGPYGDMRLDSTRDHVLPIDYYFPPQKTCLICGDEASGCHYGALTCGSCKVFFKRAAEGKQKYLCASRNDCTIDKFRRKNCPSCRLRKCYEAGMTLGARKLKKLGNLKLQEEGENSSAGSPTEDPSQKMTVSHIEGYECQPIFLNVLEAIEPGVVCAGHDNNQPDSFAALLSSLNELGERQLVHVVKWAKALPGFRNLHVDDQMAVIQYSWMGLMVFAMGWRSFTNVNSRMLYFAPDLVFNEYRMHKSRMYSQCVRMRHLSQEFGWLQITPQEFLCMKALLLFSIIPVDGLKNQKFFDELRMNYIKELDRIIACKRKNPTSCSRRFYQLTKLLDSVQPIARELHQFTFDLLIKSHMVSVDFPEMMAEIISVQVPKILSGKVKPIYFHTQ

T4 sequence (P25105 whole entry): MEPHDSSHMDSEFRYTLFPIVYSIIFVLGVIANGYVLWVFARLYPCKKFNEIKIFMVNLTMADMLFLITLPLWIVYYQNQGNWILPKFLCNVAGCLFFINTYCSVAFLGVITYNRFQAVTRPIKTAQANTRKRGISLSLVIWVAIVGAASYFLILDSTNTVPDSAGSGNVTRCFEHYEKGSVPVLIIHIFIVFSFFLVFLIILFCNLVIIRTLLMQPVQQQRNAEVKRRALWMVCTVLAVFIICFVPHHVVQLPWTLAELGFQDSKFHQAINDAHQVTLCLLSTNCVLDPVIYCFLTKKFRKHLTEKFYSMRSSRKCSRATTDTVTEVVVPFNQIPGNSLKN
T7 sequence (Q12809 whole entry): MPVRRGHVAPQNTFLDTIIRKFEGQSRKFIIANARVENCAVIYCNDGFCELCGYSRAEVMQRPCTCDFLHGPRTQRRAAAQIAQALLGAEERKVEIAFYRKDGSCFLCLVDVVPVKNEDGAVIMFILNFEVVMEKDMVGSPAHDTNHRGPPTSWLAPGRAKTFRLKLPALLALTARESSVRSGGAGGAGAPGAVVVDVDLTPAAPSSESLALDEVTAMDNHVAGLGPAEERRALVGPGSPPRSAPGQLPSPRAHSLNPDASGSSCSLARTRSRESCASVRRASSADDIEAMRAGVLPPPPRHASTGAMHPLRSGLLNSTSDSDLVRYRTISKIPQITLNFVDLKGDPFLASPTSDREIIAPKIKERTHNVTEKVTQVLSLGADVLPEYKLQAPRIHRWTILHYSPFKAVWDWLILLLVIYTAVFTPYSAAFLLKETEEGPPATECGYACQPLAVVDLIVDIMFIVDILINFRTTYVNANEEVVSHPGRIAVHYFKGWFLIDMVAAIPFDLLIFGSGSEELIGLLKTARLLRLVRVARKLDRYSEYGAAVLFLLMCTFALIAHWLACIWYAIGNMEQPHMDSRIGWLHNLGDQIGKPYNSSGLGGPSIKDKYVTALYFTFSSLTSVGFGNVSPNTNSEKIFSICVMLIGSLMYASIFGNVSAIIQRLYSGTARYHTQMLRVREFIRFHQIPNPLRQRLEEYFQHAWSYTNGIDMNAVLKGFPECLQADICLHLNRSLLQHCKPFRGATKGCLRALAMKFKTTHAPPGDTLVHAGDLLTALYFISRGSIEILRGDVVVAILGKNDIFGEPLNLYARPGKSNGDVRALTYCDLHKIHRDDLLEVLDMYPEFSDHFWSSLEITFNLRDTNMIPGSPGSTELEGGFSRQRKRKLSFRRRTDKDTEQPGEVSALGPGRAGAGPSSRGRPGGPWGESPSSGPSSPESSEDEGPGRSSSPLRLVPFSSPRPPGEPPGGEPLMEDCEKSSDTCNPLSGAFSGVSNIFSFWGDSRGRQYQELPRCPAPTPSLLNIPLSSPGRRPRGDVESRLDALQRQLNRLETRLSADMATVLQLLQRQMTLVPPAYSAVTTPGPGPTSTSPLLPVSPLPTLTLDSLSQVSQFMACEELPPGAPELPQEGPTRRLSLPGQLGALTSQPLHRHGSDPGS
T3 sequence (P15823 whole entry): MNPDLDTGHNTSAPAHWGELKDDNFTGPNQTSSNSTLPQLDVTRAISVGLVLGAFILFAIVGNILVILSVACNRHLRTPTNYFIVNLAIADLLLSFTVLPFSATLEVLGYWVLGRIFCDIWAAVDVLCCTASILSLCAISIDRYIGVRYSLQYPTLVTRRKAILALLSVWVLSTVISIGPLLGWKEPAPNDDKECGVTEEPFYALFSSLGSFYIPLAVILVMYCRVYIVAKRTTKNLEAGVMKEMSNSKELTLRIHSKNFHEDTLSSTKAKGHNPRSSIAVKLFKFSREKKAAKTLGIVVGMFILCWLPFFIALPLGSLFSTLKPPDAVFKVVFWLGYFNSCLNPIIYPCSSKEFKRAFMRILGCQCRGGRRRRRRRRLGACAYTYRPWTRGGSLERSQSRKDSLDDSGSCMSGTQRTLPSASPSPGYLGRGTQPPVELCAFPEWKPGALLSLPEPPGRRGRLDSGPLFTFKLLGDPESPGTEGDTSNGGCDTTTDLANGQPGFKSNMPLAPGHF
T5 sequence (P08588 whole entry): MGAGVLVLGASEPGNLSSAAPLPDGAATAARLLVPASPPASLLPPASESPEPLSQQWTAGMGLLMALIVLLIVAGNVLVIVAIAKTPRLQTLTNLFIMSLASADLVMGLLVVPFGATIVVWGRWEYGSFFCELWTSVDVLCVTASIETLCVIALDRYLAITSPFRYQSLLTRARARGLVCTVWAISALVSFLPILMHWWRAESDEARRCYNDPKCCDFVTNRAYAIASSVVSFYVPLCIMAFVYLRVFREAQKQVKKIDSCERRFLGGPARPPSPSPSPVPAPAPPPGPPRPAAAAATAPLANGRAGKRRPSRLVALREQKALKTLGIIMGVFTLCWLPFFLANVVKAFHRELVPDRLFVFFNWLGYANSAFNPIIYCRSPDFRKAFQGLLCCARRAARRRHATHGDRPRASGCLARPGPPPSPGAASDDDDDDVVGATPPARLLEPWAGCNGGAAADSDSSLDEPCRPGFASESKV
T1 sequence (P21917 with tags, fused parts or gaps DEL265-296): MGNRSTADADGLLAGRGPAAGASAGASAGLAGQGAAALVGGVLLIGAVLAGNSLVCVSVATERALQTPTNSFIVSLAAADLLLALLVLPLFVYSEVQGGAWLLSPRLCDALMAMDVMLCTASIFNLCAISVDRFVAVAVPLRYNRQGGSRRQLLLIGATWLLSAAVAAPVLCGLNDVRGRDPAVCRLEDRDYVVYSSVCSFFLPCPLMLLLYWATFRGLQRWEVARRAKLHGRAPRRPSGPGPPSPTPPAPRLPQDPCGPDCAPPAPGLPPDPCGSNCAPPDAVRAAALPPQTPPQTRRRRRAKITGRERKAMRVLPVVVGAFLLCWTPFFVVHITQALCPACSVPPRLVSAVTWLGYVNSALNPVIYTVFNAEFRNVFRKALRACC
T2 sequence (P21728 whole entry): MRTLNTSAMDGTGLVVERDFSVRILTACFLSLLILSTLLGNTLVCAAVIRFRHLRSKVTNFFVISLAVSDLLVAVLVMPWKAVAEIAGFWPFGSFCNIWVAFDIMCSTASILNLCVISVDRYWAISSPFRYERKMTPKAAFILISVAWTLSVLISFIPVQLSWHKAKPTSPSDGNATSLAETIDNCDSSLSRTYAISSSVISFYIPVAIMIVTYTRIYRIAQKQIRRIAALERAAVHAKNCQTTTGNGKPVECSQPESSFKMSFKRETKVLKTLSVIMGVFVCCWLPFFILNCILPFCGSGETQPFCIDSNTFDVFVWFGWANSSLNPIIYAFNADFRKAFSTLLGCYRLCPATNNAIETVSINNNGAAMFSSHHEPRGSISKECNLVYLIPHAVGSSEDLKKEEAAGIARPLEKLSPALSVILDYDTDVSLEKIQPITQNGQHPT
T6 sequence (P35372 whole entry): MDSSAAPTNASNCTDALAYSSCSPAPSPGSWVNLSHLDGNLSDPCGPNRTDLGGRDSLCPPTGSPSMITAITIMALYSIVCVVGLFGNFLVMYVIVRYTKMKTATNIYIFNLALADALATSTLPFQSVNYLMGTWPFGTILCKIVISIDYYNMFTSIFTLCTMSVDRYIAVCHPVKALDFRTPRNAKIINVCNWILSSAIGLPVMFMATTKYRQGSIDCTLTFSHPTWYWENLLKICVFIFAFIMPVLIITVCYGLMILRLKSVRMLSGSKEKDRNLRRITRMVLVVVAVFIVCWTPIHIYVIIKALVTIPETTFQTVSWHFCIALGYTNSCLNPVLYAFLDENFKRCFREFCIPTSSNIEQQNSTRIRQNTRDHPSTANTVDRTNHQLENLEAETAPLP

Row | Structure (SMILES) | EC50 (MITF) [µM] | IC50 (A375 cells) [µM] | inhibition at 10 µM (Dopamine D4.2) [%] | inhibition at 10 µM (Dopamine D1) [%] | inhibition at 10 µM (Adrenergic α1B) [%] | inhibition at 10 µM [1] [%] | inhibition at 10 µM (Adrenergic β1) [%] | inhibition at 10 µM (Opiate μ (OP3, MOP)) [%] | inhibition at 10 µM (Potassium Channel hERG) [%] | inhibition at 10 µM [2] [%]
1 | NS(=O)(=O)c1ccc(NC2=CC(=O)c3ccccc3C2=O)cc1 [4-((1,4-dioxo-1,4-dihydronaphthalen-2-yl)amino)benzenesulfonamide] | 0.16 | > 35 |  |  |  |  |  |  |  | 
2 | NS(=O)(=O)c1ccc(NC2=CC(=O)c3ccccc3C2=O)cc1 [Example 1, 4-((1,4-Dioxo-1,4-dihydronaphthalen-2-yl)amino)benzenesulfonamide] |  |  | 4 | 21 | 16 | 3 | 20 | 1 | -4 | 14
